# Measured values: patent US20180155344A1, “TRICYCLIC PIPERIDINE COMPOUNDS” (ACTELION PHARMACEUTICALS LTD, priority 2015, published 2018)
# Target: T1, human TPH1 (Homo sapiens, UniProt P17752)
# T1 sequence (P17752 1-444): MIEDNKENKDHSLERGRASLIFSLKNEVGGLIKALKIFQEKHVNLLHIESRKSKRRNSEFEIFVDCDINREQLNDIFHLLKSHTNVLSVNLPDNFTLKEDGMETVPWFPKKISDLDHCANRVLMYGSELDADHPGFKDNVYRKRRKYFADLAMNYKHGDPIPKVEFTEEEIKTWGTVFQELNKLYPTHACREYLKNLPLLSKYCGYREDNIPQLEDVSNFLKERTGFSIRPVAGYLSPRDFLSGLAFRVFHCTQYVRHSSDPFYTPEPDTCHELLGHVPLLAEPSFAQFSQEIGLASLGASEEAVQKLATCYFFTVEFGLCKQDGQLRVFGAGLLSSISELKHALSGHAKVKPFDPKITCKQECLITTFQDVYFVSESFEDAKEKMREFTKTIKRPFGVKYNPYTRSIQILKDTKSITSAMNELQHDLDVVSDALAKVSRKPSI
# Test: biochemical
# How it was run: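 Inhibition is derived from 5-hydroxy-L-tryptophan fluorescence (540 nm emission, 300 nm excitation) after perchloric acid stop, relative to DMSO vehicle. Recombinant full-length human enzyme (40-80 nM) reacts with 40 μM tryptophan plus 100 μM methyltetrahydropterin, pH 7.6 Tris/DTT/catalase, 15° C, 60 min.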
row,SMILES,IC50 [nM]
1,"O=C(COc1ccc(C(F)(F)F)cc1Cl)N1CCc2nc3cccnn3c2C1c1ncc(C2CC2)cc1F (centres unmarked) [Example 16.2.5, 2-(2-chloro-4-(trifluoromethyl)phenoxy)-1-(9-(5-cyclopropyl-3-fluoropyridin-2-yl)-6,9-dihydropyrido[4′,3′:4,5]imidazo[1,2-b]pyridazin-8(7H)-yl)ethan-1-one]",238
2,"COc1ccc([C@@H]2c3c(nc4cc(Cl)ccn34)CCN2C(=O)COc2ccc(N3CCOCC3)cc2Cl)cn1 [Example 2.5.1, 1-((1R)-7-chloro-1-(6-methoxypyridin-3-yl)-3,10a-dihydroimidazo[1,2-a:5,4-c′]dipyridin-2(1H)-yl)-2-(2-chloro-4-morpholinophenoxy)ethan-1-one]",89
3,"COC(=O)COc1cc(C2c3c(nc4cc(Cl)ccn34)CCN2C(=O)COc2ccc(CN3CCOCC3)cc2Cl)ccc1OC (centres unmarked) [Example 2.14.1, Methyl 2-(5-(7-chloro-2-(2-(2-chloro-4-(morpholinomethyl)phenoxy)acetyl)-1,2,3,4-tetrahydroimidazo[1,2-a:5,4-c′]dipyridin-1-yl)-2-methoxyphenoxy)acetate]",88
4,"COc1ccc(C2c3c(nc4ccc(-c5ccccc5)cn34)CCN2C(=O)COc2ccc3ccccc3c2)cc1OC (centres unmarked) [Example 8.1.1, 1-(1-(3,4-dimethoxyphenyl)-8-phenyl-3,4-dihydroimidazo[1,2-a:5,4-c′]dipyridin-2(1H)-yl)-2-(naphthalen-2-yloxy)ethan-1-one]",38
5,"CCc1cc(C)c(C(=O)NC)cc1OCC(=O)N1CCc2nc3ccccn3c2C1c1ccc(OC)c(OC)c1 (centres unmarked) [Example 1.1.12, 5-(2-(1-(3,4-dimethoxyphenyl)-3,4-dihydroimidazo[1,2-a:5,4-c′]dipyridin-2(1H)-yl)-2-oxoethoxy)-4-ethyl-N,2-dimethylbenzamide]",141
6,"COc1ccc(C2c3c(nc4cc(C(F)(F)F)ccn34)CCN2C(=O)COc2ccccc2C(F)(F)F)cc1OC (centres unmarked) [Example 3.1.7, 1-(1-(3,4-dimethoxyphenyl)-7-(trifluoromethyl)-3,4-dihydroimidazo[1,2-a:5,4-c′]dipyridin-2(1H)-yl)-2-(2-(trifluoromethyl)phenoxy)ethan-1-one]",29
7,"Cc1ccc(C2c3c(nc4cc(C(F)(F)F)ccn34)CCN2C(=O)COc2ccc(CN3CCOCC3)cc2Cl)cn1 (centres unmarked) [Example 3.38.2, 2-(2-chloro-4-(morpholinomethyl)phenoxy)-1-(1-(6-methylpyridin-3-yl)-7-(trifluoromethyl)-3,4-dihydroimidazo[1,2-a:5,4-c′]dipyridin-2(1H)-yl)ethan-1-one]",92
8,"COCCOc1ccc(C2c3c(nc4ccccn34)CCN2C(=O)COc2ccc(NS(C)(=O)=O)nc2Cl)c(F)c1 (centres unmarked) [Example 1.21.2, N-(6-chloro-5-(2-(1-(2-fluoro-4-(2-methoxyethoxy)phenyl)-3,4-dihydroimidazo[1,2-a:5,4-c′]dipyridin-2(1H)-yl)-2-oxoethoxy)pyridin-2-yl)methanesulfonamide]",79

# The next compounds have a lower IC50 than those just listed; values first:
row,IC50 [nM],SMILES
1,18,"Cc1cc(Cl)ccc1OCC(=O)N1CCc2nc3ccccn3c2C1c1ccc(Cl)cc1F (centres unmarked) [Example 1.4.1, 1-(1-(4-chloro-2-fluorophenyl)-3,4-dihydroimidazo[1,2-a:5,4-c′]dipyridin-2(1H)-yl)-2-(4-chloro-2-methylphenoxy)ethan-1-one]"
2,15,"Cc1ccc(C2c3c(nc4cc(C(F)(F)F)ccn34)CCN2C(=O)COc2ccc(NS(C)(=O)=O)nc2Cl)c(F)c1 (centres unmarked) [Example 3.22.5, N-(6-chloro-5-(2-(1-(2-fluoro-4-methylphenyl)-7-(trifluoromethyl)-3,4-dihydroimidazo[1,2-a:5,4-c′]dipyridin-2(1H)-yl)-2-oxoethoxy)pyridin-2-yl)methanesulfonamide]"
3,4,"COc1cc(F)c(C2c3c(nc4cc(C(F)(F)F)ccn34)CCN2C(=O)COc2ccc3c(c2)CN(C(=O)CO)CC3)cc1OC (centres unmarked) [Example 3.18.7, 1-(1-(2-fluoro-4,5-dimethoxyphenyl)-7-(trifluoromethyl)-3,4-dihydroimidazo[1,2-a:5,4-c′]dipyridin-2(1H)-yl)-2-((2-(2-hydroxyacetyl)-1,2,3,4-tetrahydroisoquinolin-7-yl)oxy)ethan-1-one]"
